From article PMC10065799, “High-throughput profiling of sequence recognition by tyrosine kinases and SH2 domains using bacterial peptide display” (eLife, 2023)

What was measured:
Test in all cases: pTyr-Var library bacterial peptide display kinase screen (enrichment scores)
[1] = biological target: T1, c-Abl kinase domain (Mus musculus, UniProt P00520); type: biochemical;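 as to screen: log2 fold change in enrichment of variant over reference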
T1 sequence (P00520 242-493 limits assumed): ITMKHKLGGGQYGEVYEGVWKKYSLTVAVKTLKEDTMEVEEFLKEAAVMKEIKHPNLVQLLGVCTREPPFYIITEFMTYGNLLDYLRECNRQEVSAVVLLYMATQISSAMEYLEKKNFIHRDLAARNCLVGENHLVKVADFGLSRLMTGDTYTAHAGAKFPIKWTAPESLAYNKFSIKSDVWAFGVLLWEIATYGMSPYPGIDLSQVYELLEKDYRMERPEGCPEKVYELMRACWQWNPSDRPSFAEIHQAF

[2] = system: Fer kinase domain; type: biochemical, mouse; conditions: sheet "Fer";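 also: log2 fold change in enrichment of variant over reference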
[3] = biological target: c-Src kinase domain (Homo sapiens, UniProt P12931); type: biochemical; conditions: sheet "Src";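 also: log2 fold change in enrichment of variant over reference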
[4] = system: EPHB2 kinase domain; type: biochemical, human; conditions: sheet EPHB2; effect of variant peptide relative to its reference peptide in the pTyr-Var library screen (enrichment scores);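 also: log2 fold change in enrichment of variant over reference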
[5] = fig5-data2, sheet "Abl", Screen for the variant/reference peptide pair, pTyr-Var library
[6] = sheet "Abl", effect of variant peptide relative to its reference peptide in pTyr-Var library screen (enrichment)
[7] = variant peptide versus its reference peptide in the pTyr-Var library screen
[8] = value of the variant peptide against its reference peptide in the pTyr-Var library screen with Fer
[9] = effect of the variant peptide relative to its reference peptide in the pTyr-Var library screen

## RVSSVYTRSTG [CCR5_Y339_A335V]
[1]; [5]
  Screen: 1.763

## PVADPYDQSFE [P38A Y323]
[1]; pTyr-Var library bacterial peptide display screen with c-Abl, 11-residue peptides (SITE_+/-5_AA) of annotated Abl substrate sites, sheet "Abl substrates", mean
  Enrichment score (mean): 2.375

## IVRSLYEDQED [VHL_Y185_L188Q]
[1]; [6]
  Screen: 2.774

## PGVNFYFQVSA [TTN_Y28166_R28168Q_YF]
[1]; [6]
  Screen: -2.22

## KTGDFYDLFGG [PTPN11_Y63_N58K_YF]
[2]; variant peptide relative to its reference peptide, pTyr-Var library screen enrichment
  Screen: -1.345
[3]; [7]
  Screen: -0.7427

## FLLRVYSIFSK [SGCE_Y38_T36R]
[3]; [7]
  Screen: -1.068

## PNRILYGDFQQ [MYH7_Y715_R719Q]
[3]; [7]
  Screen: -0.8592

## DPNQQYFIAMD [TBX15_Y159_H156N_YF]
[1]; [6]
  Screen: -1.397

## PLCPDYQEPSR [DDR2_Y481_R478C]
[4]
  Screen: 1.681

## TNFSLYLRSLE [MTM1_Y71_R69S_YF]
[1]; [5]
  Screen: -0.4541

## HCFAAYFQQGD [GPI_Y351_R347C]
[1]; [5]
  Screen: 0.663

## NVSILYTASQA [CTNNA1_Y222_P219S]
[1]; [5]
  Screen: -0.9911

## QRVLLYVQRET [GRHL3_Y518_R520Q]
[1]; [5]
  Screen: -0.6307

## KMKGEYFRFLA [YWHAG_Y130_D129E_YF]
[1]; [6]
  Screen: -2.114
[3]; [7]
  Screen: 0.3869

## QLQVFYATRDQ [MIPEP_Y579_L582R]
[2]; [8]
  Screen: -2.265
[3]; [9]
  Screen: -2.05
[4]
  Screen: -1.278

## LITTLYISFLG [KCNQ1_Y267_G269S]
[3]; [9]
  Screen: -1.106

## ACQSLYGGFVE [MVD_Y164_R161Q]
[3]; [9]
  Screen: 0.09261
[4]
  Screen: 1.328

## VVQGLYKSMRK [KBTBD2_Y250_P254R]
[1]; [5]
  Screen: 0.59

## RKETFYILSCR [GUCY2C_Y681_T682I]
[3]; [9]
  Screen: -2.18

## LWQSIYNLDAE [TNNT2_Y251_E254D]
[3]; [7]
  Screen: 0.02036

## SLIDMYSEVLA [OPA1_Y268_D273A]
[3]; [7]
  Screen: 1.458

## FQKDVYNIPPS [NEDD9_Y177_D178N_YF]
[3]; [7]
  Screen: -0.2537
[4]
  Screen: -2.279

## AALRLYHVSDS [VIL1_Y256_K254R]
[1]; [6]
  Screen: 2.11

## QPRDIYHQTWA [GBA_Y244_G241R]
[3]; [9]
  Screen: -0.7899

## ELAVNYQEQAS [SLC9A9_Y591_I589V]
[1]; [6]
  Screen: 1.481

## SENFTYIWWLN [PSG4_Y271_K267E_YF]
[1]; [5]
  Screen: 0.9727

## EDKFMYLEFPQ [PTEN_Y240_F241L]
[3]; [7]
  Screen: -1.097

## PVQAVYQKVVA [HBB_Y131_A130V]
[3]; [9]
  Screen: 1.787

## QHVPDYRQNGF [PCDHGA1_Y890_V894G_YF]
[1]; [5]
  Screen: -1.497

## PSSRDYKDNIK [PIGN_Y227_H229D]
[1]; [5]
  Screen: -1.292

## QKKPCYEIRWK [PDGFRB_Y562_R561C]
[1]; [5]
  Screen: 0.01021

## GCKNRYDEDKP [THAP1_Y14_K16E]
[1]; [6]
  Screen: 1.101

## EFRFIYMAVQH [PTPN11_Y515_Q510E_YF]
[3]; [7]
  Screen: 0.0506

## FSSLGYPLPEG [ZSWIM4_Y87_P89L_YF]
[1]; [6]
  Screen: 1.474

## GLTSTYVGIRK [ROBO1_Y932_A933V]
[3]; [7]
  Screen: -1.42

## ADGLEYPRTGL [MMUT_Y287_S288P]
[4]
  Screen: -1.339

## GMTLSYLFWEP [NDUFS8_Y74_R77W]
[2]; [8]
  Screen: 3.343

## DFFDLYGGQKF [PTPN11_Y66_E69Q_YF]
[3]; [7]
  Screen: 1.294

## HPAGNYSLSSV [ARFGAP3_Y473_Q468H]
[1]; [5]
  Screen: -0.2234

## MASISYDFCRV [BST2_Y6_T4I_YF]
[2]; [8]
  Screen: -0.4486

## VQEDIYDEFVV [ALDH2_Y332_E337V]
[2]; [8]
  Screen: 3.107
[3]; [9]
  Screen: 0.8946

## EAGKVYLKAAM [CBFB_Y96_P100A]
[1]; [5]
  Screen: 0.4405

## HGEAVYSRDCV [XPC_Y676_R671H]
[1]; [6]
  Screen: 1.031
[3]; [7]
  Screen: 0.7041

## REETTYLPLTS [ICAM3_Y527_S525T]
[3]; [9]
  Screen: -0.5459

## SKLTIYDGRPS [MTM1_Y277_A279G]
[3]; [9]
  Screen: -1.75

## GEFFRYLAEVA [YWHAG_Y133_D129E_YF]
[1]; [6]
  Screen: 3.326

## LVRAFYCERRW [CARD11_Y970_R975W]
[4]
  Screen: -0.93

## IVTLKYPIEHG [ACTB_Y69_L65V]
[1]; [5]
  Screen: -1.416

## KAEQLYIGVTV [EFHC2_Y509_E507Q]
[2]; [8]
  Screen: 0.3011
[3]; [9]
  Screen: 0.06421

## FVSLIYTNFEA [GSTP1_Y109_I105V_YF]
[2]; [8]
  Screen: 0.7121
[3]; [9]
  Screen: 0.3433

## KFADVYVGICL [B3GALNT1_Y269_E266A]
[2]; [8]
  Screen: -1.445
[3]; [9]
  Screen: -1.369

## PNRILYRDFRQ [MYH7_Y715_G716R]
[3]; [7]
  Screen: -3.613

## AGARMYGVLPW [PLP1_Y207_D203G]
[3]; [7]
  Screen: -0.8816
[4]
  Screen: -1.831

## LHVKMYNFLRS [ADGRG7_Y760_R756H]
[4]
  Screen: -0.4432

## PIGRKYKKVRF [F8_Y442_R437P]
[1]; [5]
  Screen: 0.1866

## GDEVEYMSVSF [GCLC_Y53_L55S]
[2]; [8]
  Screen: -1.292

## LAVNPYGPPDL [TTN_Y22579_P22584L]
[1]; [6]
  Screen: -1.7

## FCRHNYGVGES [HLA-DRB1_Y112_V115G_YF]
[4]
  Screen: -2.304

## KGEDFYFVTCH [FHL1_Y149_C150Y_YF]
[1]; [5]
  Screen: -2.007

## ARKCKYFKKHE [NFIX_Y40_R38C]
[1]; [5]
  Screen: 1.494

## TKLKDYFIFNK [CCDC42_Y149_A144T_YF]
[1]; [5]
  Screen: -0.5052

## TKDTFYQQPMF [GBA_Y451_K452Q]
[2]; [8]
  Screen: 2.731
[4]
  Screen: 1.843

## DTQNSYWCATS [TSC1_Y304_G305W]
[1]; [6]
  Screen: 1.58

## KGEDFYSVTCH [FHL1_Y149_C150S]
[2]; [8]
  Screen: 2.793
[3]; [9]
  Screen: 2.7

## TKGNEYVFRVA [TTN_Y30829_E30825K]
[1]; [6]
  Screen: -2.941

## PADQAYSWFQH [NDST1_Y711_R709Q_YF]
[2]; [8]
  Screen: 0.5054
[3]; [7]
  Screen: 1.532

## PHMQTYEVDHN [SDHB_Y61_L65H]
[4]
  Screen: 0.7041

## LINSVYGCSRQ [TMPRSS6_Y290_T287N]
[3]; [7]
  Screen: 1.631

## NSAFFYKTAEE [CCT6B_Y250_G247A]
[1]; [5]
  Screen: 0.06962

## EALDFYGEVRI [PTEN_Y155_T160I]
[2]; [8]
  Screen: 1.122

## AVARMYGVLPW [PLP1_Y207_D203V]
[3]; [7]
  Screen: -1.597
[4]
  Screen: -2.007

## LPEHPYHSRPR [NDUFA8_Y142_N140H]
[1]; [5]
  Screen: -0.8491
[3]; [7]
  Screen: -0.5324
[4]
  Screen: 1.643

## PRDGEYFTLQI [TP53_Y327_L323R]
[3]; [7]
  Screen: -0.0193

## VKANTYEKFWL [GATM_Y100_P105L_YF]
[2]; [8]
  Screen: 2.288
[3]; [9]
  Screen: -1.276

## EWLRRYLKNGK [HLA-C_Y195_E197K]
[1]; [5]
  Screen: -0.1377

## RGVVMYTSKDR [ZG16B_Y136_M133V]
[1]; [6]
  Screen: -3.766

## KACNPYKPPGP [TTN_Y25826_T25821K]
[1]; [6]
  Screen: -2.971

## GQLIVYAPPEW [CNTN6_Y315_F314V]
[2]; [8]
  Screen: -1.619
[3]; [9]
  Screen: 1.101
[4]
  Screen: -0.7681

## LTVVIYVLVGR [EPHA3_Y561_I564V]
[2]; [8]
  Screen: -2.144
[4]
  Screen: -4.573

## LLEGKYEWQEV [CDKN1B_Y74_P69L]
[2]; [8]
  Screen: 1.551

## QDLLLYQTHSE [PKHD1_Y255_F253L]
[2]; [8]
  Screen: 1.348
[3]; [7]
  Screen: 0.9307
[4]
  Screen: 1.452

## VKFGAYINDFK [GLB1_Y488_N484K_YF]
[1]; [5]
  Screen: -0.5379

## LEQDEYALHSH [HADHB_Y244_R247H]
[4]
  Screen: -1.049

## DWWQEYVLNES [TGM1_Y267_R264W]
[3]; [7]
  Screen: 1.594

## SLDLSYFHTSS [EMD_Y181_P183H_YF]
[1]; [5]
  Screen: -1.954

## SFSGEYGSGGG [ZG16_Y30_G32S_YF]
[1]; [6]
  Screen: -2.078

## NTGGFYDLFGG [PTPN11_Y63_D61G_YF]
[2]; [8]
  Screen: 1.072
[3]; [7]
  Screen: -0.08944

## EAVKNYTEKRG [PBRM1_Y672_D674E]
[1]; [5]
  Screen: -0.8395
